# Experimental data reported in patent US20020128176A1, “Treatment of erectile dysfunctions with C-Type natriuretic polypeptide (CNP) as a monotherapy or in combination with phosphodiesterase inhibitors” (priority 1999, published 2002).
# Where no end group is shown, it is not given here.
# Key:
# [1] = Tests made with male patients: induction of erection; assay type: in vivo, human; details: for erection / time for which the erection was maintained: male patients
# [2] = system: smooth muscle of the human corpus cavernosum penis; assay: Functional organ bath studies: relaxation of norepinephrine-precontracted strip preparations of human cavernous muscles
# Experimental: Functional organ bath studies:
# Strip preparations of human cavernous muscles were fixed in the bath chambers of an organ bath plant (Isolated Organ Apparatus IOA 5306, Föhr Medical Instruments GmbH, Seeheim, Germany) filled with a modified Krebs-Ringer solution (NaCl 120 mM, NaHCO3 25.6 mM, KCl 4.7 mM, CaCl2 2.5 mM, NaH2PO4 1.2 mM, MgCl2 1.2 mM, glucose 22 mM, 2Na^+ (Ca^2+) EDTA 0.1 mM, pH 7.2-7.4). The temperature of the bath solution was controlled to 37° C., and a mixture of […] O2 and 5% CO2 was continuously sparkled through the solution. The application of a passive bias tension of 5 mN (0.5 g) was followed by an equilibration phase of 60 min. Subsequently, the muscle strips were stimulated with 6 μM norepinephrine (NOR). After a stable contraction plateau was reached, the peptides human atrial natriuretic peptide/cardiodilatin (ANP/CDD99-126) (for a survey, see Forssmann et al., 1998) and human C-type natriuretic peptide (CNP) (Ogawa et al., 1992), which are chemically synthesized in our laboratory, were added with cumulative dosage (0.01 to 1000 nM). Changes in the mechanical tension of the muscles were recorded with an analog-digital measured data acquisition system (MacLab®, AD Instruments, Castle Hill, Australia).
compound,measurement,setting,value
"CCCc1nn(C)c2c(=O)[nH]c(-c3cc(S(=O)(=O)N4CCN(C)CC4)ccc3OCC)nc12 [Sildenafil, reference compound]",necessary dose for the induction of an erection,"[1]; combined, simultaneous application of CNP",significantly decreased
same,side-effects (flickering in the eyes or headaches),"[1]; some subjects, combined application with CNP versus exclusive Sildenafil treatment","reduced, in part to complete disappearance"
"C-type natriuretic polypeptide (GLSKGCFGLKLDRIGSMSGLGC) [CNP, ligand of guanylate cyclase B]",concentration from which a significant relaxant effect is seen,"[2]; strips precontracted with 6 μM norepinephrine, cumulative dosage 0.01 to 1000 nM",1 nM
same,erection,[1]; intracavernous application,immediate erection
same,time for which the erection was maintained,[1]; intracavernous application,about one
same,erection,[1]; intravenous application,immediate erection
same,time for which the erection was maintained,[1]; intravenous application,about one
"human atrial natriuretic peptide/cardiodilatin (SLRRSSCFGGRMDRIGAQSGLGCNSFRY; ends and bridges not checked; cysteine pairing not given here) [ANP/CDD99-126, Chemically synthesized peptide, the ligand of guanylate cyclase A, reference compound]",relaxation of precontracted smooth muscle (in words),"[2]; at corresponding concentrations (1 nM to 1 μM), precontracted with 6 μM norepinephrine",no significant relaxation
